# Experimental data published in US20250289827A1, “MORPHIC FORMS OF A MUTANT BRAF DEGRADER AND METHODS OF MANUFACTURE THEREOF” (C4 THERAPEUTICS, INC., priority 2022, published 2025).
# Entries after “also recorded” stand apart in the source; their conditions may differ.
# Columns and labels:
# Format in all cases: physicochemical
# [1] = Bulk stability of Compound 1 Form B (1 week stress); settings: for Bulk (XRPD) crystallinity / Bulk (XRPD) form / Color / Purity, Bulk (HPLC): Solid state
# Method: Compound 1 Form B was placed at 25° C./92% RH in an open container, at 40° C./75% RH in an open container and at 60RC in a closed container for 1 week. Samples after the stress were characterized by XRPD and HPLC and inspected for color change.
# [2] = Water sorption and desorption (DVS) of Compound 1 Form B; settings: for 1st desorp. Weight % change / 1st sorp. Weight % change / 2nd desorp. Weight % change / 2nd sorp. Weight % change: 25° C.
# Method: Water sorption and desorption behavior of Compound 1 Form B was investigated by DVS at 25° C. with a cycle of 40-0-95-0-40% RH, dm/dt 0.002, min. equilibration time 60 min and maximum equilibration time 360 min XRPD was measured after the DVS test to determine form change.
# [3] = Compression simulation experiments; settings: for Comments: color / Comments: crystallinity / XRPD: compressed 5 minutes
# Method: About 20 mg of Compound 1 Form B was compressed for 5 minutes under 2 MPa and 10 MPa with a hydraulic press. Potential form change and degree of crystallinity were evaluated by XRPD.
# [4] = 25° C./92% RH, open container, 1 week
# [5] = 40° C./75% RH, open container, 1 week
# [6] = 60° C., tight container, 1 week
compound,measurement,setting,value
CCN(C)S(=O)(=O)Nc1ccc(F)c(Oc2ccc3ncn([C@H]4COC5(CCN(C(=O)CC6(O)CCN(c7cc8c(cc7F)c(N7CCC(=O)NC7=O)nn8C)CC6)CC5)C4)c(=O)c3c2)c1C#N [Compound 1 Form B],Bulk (XRPD) crystallinity,[1]; [4],No change in crystallinity
same,Bulk (XRPD) form,[1]; [4],Form B
same,Color,[1]; [4],No change of color
same,"Purity, Bulk (HPLC)",[1]; [4],99.2%
same,Bulk (XRPD) crystallinity,[1]; [5],No change in crystallinity
same,Bulk (XRPD) form,[1]; [5],Form B
same,Color,[1]; [5],No change of color
same,"Purity, Bulk (HPLC)",[1]; [5],99.3%
same,Bulk (XRPD) crystallinity,[1]; [6],No change in crystallinity
same,Bulk (XRPD) form,[1]; [6],Form B
same,Color,[1]; [6],No change of color
same,"Purity, Bulk (HPLC)",[1]; [6],99.3%
same,Bulk (XRPD) form,"[1]; photo (visible light, 1.2 million lux-hrs)",Form B
same,"Bulk stability (purity, crystal form, crystallinity)","[1]; one week, 25° C./92% RH open, 40° C./75% RH open, 60° C. tight container","excellent chemical and physical stability without any changes in purity, crystal form and crystallinity; also recorded: excellent chemical and physical stability without any changes in purity, crystal form and/or crystallinity"
same,1st desorp. Weight % change,[2]; 0% RH,0.0%
same,1st sorp. Weight % change,[2]; 0% RH,0.0%
same,2nd desorp. Weight % change,[2]; 0% RH,0.0%
same,2nd sorp. Weight % change,[2]; 0% RH,0.0%
same,1st desorp. Weight % change,[2]; 10% RH,0.1%
same,1st sorp. Weight % change,[2]; 10% RH,0.1%
same,2nd desorp. Weight % change,[2]; 10% RH,0.1%
same,2nd sorp. Weight % change,[2]; 10% RH,0.1%
same,1st desorp. Weight % change,[2]; 20% RH,0.3%
same,1st sorp. Weight % change,[2]; 20% RH,0.2%
same,2nd desorp. Weight % change,[2]; 20% RH,0.3%
same,2nd sorp. Weight % change,[2]; 20% RH,0.2%
same,1st desorp. Weight % change,[2]; 30% RH,0.4%
same,1st sorp. Weight % change,[2]; 30% RH,0.3%
same,2nd desorp. Weight % change,[2]; 30% RH,0.4%
same,2nd sorp. Weight % change,[2]; 30% RH,0.3%
same,1st desorp. Weight % change,[2]; 40% RH,0.5%
same,1st sorp. Weight % change,[2]; 40% RH,0.4%
same,2nd desorp. Weight % change,[2]; 40% RH,0.5%
same,2nd sorp. Weight % change,[2]; 40% RH,0.4%
same,1st sorp. Weight % change,[2]; 50% RH,0.5%
same,2nd desorp. Weight % change,[2]; 50% RH,0.8%
same,1st sorp. Weight % change,[2]; 60% RH,0.6%
same,2nd desorp. Weight % change,[2]; 60% RH,0.9%
same,1st sorp. Weight % change,[2]; 70% RH,0.7%
same,2nd desorp. Weight % change,[2]; 70% RH,1.0%
same,1st sorp. Weight % change,[2]; 80% RH,0.9%
same,2nd desorp. Weight % change,[2]; 80% RH,1.2%
same,1st sorp. Weight % change,[2]; 90% RH,1.2%
same,2nd desorp. Weight % change,[2]; 90% RH,1.4%
same,1st sorp. Weight % change,[2]; 95% RH,1.6%
same,2nd desorp. Weight % change,[2]; 95% RH,1.6%
same,Crystallinity change after water sorption and desorption,"[2]; DVS 25° C., 40-0-95-0-40% RH cycle",no changes in crystallinity
same,Water uptake,"[2]; DVS 25° C., at 95% RH",1.6%
same,Morphic form stability under compression,[3]; 2 MPa and 10 MPa,excellent morphic form stability
same,Comments: color,[3]; 2 MPa,Slight discoloration.
same,Comments: crystallinity,[3]; 2 MPa,Slight decrease in crystallinity;
same,XRPD,[3]; 2 MPa,Form B
same,Comments: color,[3]; 10 MPa,Slight discoloration.
same,Comments: crystallinity,[3]; 10 MPa,Slight decrease in crystallinity;
same,XRPD,[3]; 10 MPa,Form B
